Test results published in patent publication US11981658B2, “Substituted aminopyridine compounds as EGFR inhibitors” (YUHAN CORPORATION, priority 2021, dated 2024).
Counter-ions that a name gives are not always drawn. Like-named read-outs stand apart in the source and are kept apart here.

Key:
EGFR Del19/T790M/C797S = EGFR Del19/T790M/C797S (Homo sapiens, UniProt P00533, C797S/DEL746-750/T790M); assay: Biochemical EGFR kinase inhibition assay (Lance Ultra TR-FRET), triple mutant del19/T790M/C797S
EGFR Del19/T790M/C797S, sequence (P00533 with tags, fused parts or gaps DEL746-750/T790M/C797S): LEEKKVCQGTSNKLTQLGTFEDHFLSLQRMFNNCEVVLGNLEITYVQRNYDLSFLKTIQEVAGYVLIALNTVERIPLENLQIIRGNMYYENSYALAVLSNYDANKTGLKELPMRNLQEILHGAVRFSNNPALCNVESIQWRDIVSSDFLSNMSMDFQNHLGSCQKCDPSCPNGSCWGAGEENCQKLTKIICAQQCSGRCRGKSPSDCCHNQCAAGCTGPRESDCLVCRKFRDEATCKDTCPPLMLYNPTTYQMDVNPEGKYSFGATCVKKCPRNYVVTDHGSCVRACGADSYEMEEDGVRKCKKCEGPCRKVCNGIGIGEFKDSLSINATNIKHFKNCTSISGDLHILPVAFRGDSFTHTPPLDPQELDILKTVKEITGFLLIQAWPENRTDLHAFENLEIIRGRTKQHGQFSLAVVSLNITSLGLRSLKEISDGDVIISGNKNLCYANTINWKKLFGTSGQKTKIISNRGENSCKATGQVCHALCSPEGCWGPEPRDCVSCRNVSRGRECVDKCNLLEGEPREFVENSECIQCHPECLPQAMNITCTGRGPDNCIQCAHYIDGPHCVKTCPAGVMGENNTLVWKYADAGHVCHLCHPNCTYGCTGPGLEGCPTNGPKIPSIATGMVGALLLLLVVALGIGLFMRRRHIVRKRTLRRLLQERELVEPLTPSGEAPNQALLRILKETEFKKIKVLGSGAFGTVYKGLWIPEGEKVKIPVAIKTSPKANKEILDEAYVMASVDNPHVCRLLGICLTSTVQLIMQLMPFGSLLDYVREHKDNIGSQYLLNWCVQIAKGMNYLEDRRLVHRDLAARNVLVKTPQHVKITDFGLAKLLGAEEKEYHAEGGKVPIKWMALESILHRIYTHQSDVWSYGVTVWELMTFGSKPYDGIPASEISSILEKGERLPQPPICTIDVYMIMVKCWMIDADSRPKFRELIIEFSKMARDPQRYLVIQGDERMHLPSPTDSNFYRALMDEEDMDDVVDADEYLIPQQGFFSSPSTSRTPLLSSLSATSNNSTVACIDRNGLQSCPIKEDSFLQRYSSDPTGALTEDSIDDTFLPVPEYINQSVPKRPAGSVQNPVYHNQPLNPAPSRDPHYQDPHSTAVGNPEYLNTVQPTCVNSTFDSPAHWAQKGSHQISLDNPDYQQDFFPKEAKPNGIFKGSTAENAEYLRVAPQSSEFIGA
How it was run: (§1)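 In this biochemical assay, phosphorylation after a one-hour room-temperature reaction was detected with europium-labelled anti-phosphopeptide antibody at 2 nM final concentration.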

EGFR L858R/T790M/C797S = EGFR L858R/T790M/C797S (Homo sapiens, UniProt P00533, C797S/L858R/T790M); assay: Biochemical EGFR kinase inhibition assay (Lance Ultra TR-FRET), triple mutant L858R/T790M/C797S
How it was run: as §1

EGFR Del19/C797S = EGFR Del19/C797S (Homo sapiens, UniProt P00533, C797S/DEL746-750); assay: Biochemical EGFR kinase inhibition assay (Lance Ultra TR-FRET), double mutant del19/C797S
EGFR Del19/C797S, sequence (P00533 with tags, fused parts or gaps DEL746-750/C797S): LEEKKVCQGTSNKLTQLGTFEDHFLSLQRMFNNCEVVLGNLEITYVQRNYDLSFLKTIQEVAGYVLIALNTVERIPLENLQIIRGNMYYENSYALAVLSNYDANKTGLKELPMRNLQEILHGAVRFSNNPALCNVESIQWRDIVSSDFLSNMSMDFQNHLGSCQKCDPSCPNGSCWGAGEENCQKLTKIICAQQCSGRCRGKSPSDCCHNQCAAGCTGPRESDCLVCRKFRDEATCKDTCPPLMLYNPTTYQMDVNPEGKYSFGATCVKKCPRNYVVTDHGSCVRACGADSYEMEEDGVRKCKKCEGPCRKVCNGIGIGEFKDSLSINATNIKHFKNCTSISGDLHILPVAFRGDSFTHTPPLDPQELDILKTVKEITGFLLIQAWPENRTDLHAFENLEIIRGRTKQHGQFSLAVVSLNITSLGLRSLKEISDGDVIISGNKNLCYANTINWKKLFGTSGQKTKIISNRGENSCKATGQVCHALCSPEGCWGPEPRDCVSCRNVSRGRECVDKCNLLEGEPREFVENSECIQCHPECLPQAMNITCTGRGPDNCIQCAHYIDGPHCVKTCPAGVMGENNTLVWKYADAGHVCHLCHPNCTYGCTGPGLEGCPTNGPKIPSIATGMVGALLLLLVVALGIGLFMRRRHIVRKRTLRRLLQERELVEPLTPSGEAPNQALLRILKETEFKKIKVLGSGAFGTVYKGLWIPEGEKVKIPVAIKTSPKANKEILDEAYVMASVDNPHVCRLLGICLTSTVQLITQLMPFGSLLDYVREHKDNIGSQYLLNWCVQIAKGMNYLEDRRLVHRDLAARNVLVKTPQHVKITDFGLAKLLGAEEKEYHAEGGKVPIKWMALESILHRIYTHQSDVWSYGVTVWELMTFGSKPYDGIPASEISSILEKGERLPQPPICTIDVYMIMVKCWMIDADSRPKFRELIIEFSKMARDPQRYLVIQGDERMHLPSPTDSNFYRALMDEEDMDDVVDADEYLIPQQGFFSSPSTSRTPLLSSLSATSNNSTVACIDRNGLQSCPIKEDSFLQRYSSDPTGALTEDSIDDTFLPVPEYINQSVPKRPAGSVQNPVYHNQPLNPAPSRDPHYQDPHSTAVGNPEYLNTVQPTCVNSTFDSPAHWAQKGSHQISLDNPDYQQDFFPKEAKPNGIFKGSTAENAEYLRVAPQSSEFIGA
How it was run: as §1

EGFR L858R/C797S = EGFR L858R/C797S (Homo sapiens, UniProt P00533, C797S/L858R); assay: Biochemical EGFR kinase inhibition assay (Lance Ultra TR-FRET), double mutant L858R/C797S
EGFR L858R/C797S, sequence (P00533 25-1210 C797S/L858R): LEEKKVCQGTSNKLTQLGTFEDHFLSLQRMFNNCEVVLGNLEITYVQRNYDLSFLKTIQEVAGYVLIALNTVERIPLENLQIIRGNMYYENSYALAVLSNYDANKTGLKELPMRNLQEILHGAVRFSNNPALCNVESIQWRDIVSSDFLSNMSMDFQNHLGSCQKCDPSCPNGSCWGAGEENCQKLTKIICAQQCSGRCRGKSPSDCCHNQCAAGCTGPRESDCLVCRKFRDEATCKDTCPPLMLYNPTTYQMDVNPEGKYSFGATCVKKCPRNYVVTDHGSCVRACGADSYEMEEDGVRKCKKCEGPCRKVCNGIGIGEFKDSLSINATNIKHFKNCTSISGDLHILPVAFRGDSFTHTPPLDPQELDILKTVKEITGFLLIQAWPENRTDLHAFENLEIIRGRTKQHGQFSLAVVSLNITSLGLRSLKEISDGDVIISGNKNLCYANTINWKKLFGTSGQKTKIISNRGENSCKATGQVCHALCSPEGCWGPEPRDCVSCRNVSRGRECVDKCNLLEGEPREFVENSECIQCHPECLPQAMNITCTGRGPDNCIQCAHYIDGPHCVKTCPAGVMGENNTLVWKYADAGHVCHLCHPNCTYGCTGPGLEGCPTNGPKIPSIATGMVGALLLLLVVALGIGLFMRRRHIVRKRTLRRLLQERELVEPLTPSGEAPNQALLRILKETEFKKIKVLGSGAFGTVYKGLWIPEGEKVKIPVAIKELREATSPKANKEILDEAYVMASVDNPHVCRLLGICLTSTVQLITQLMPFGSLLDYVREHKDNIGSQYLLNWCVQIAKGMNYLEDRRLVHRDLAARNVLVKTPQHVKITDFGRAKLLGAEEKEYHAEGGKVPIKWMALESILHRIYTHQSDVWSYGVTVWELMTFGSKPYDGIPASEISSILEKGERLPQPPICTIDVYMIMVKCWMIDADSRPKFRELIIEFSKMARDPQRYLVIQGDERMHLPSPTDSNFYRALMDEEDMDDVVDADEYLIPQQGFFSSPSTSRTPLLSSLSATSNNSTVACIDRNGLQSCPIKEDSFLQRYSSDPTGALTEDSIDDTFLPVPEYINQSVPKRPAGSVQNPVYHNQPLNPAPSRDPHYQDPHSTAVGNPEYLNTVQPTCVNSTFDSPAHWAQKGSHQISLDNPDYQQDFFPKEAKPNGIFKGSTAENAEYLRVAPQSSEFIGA
How it was run: as §1

EGFR wildtype (WT) = EGFR wildtype (WT) (Homo sapiens, UniProt P00533); assay: Biochemical EGFR kinase inhibition assay (Lance Ultra TR-FRET), wildtype
EGFR wildtype (WT), sequence (P00533 25-1210): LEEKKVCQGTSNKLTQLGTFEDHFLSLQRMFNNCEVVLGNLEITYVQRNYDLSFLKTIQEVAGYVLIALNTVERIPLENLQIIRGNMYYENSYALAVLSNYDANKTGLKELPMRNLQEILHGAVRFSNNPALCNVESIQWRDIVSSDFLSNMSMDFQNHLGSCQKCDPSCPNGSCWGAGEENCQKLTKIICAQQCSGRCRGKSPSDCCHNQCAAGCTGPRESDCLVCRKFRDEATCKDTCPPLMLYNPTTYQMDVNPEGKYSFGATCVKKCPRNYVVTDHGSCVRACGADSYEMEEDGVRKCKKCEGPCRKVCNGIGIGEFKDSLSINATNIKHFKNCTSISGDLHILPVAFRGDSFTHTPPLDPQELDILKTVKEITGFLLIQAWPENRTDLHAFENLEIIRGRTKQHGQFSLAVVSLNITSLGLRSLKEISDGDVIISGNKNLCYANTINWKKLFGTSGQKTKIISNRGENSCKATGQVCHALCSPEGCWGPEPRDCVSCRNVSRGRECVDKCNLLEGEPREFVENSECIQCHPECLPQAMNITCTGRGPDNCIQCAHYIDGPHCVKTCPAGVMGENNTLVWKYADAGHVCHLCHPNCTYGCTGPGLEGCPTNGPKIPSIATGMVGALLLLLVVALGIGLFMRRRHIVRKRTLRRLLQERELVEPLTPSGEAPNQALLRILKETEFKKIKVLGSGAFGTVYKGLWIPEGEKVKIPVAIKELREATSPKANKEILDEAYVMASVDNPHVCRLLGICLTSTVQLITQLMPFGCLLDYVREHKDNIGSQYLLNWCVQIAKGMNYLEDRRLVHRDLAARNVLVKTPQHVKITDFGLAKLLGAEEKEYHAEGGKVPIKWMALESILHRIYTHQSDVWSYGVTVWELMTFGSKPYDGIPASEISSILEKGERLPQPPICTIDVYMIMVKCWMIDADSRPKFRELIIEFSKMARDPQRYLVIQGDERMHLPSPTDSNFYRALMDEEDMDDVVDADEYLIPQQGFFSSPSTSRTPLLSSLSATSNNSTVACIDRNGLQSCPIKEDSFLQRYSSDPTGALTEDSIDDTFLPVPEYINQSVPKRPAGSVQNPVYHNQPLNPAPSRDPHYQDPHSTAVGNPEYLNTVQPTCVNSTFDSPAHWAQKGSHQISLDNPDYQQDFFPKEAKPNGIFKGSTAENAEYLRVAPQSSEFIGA
How it was run: as §1

[1] = IC50 Del19/T790M/C797S (nM), 100 μM ATP
[2] = IC50 L858R/T790M/C797S (nM), 100 μM ATP
[3] = IC50 Del19/C797S (nM), 100 μM ATP
[4] = IC50 L858R/C797S (nM), 100 μM ATP
[5] = ATP at Km, read-out: IC50 Del19/T790M/C797S (nM), Km ATP
[6] = ATP at Km, read-out: IC50 L858R/T790M/C797S (nM), Km ATP
[7] = ATP at Km, read-out: IC50 Del19/C797S (nM), Km ATP
[8] = ATP at Km, read-out: IC50 L858R/C797S (nM), Km ATP
[9] = ATP at Km, read-out: IC50 WT (nM), Km ATP

Compound	IC50 (EGFR Del19/T790M/C797S; [1]) [nM]	IC50 (EGFR L858R/T790M/C797S; [2]) [nM]	IC50 (EGFR Del19/C797S; [3]) [nM]	IC50 (EGFR L858R/C797S; [4]) [nM]	IC50 (EGFR wildtype (WT); IC50 WT (nM), 100 μM ATP) [nM]	IC50 (EGFR Del19/T790M/C797S; [5]) [nM]	IC50 (EGFR L858R/T790M/C797S; [6]) [nM]	IC50 (EGFR Del19/C797S; [7]) [nM]	IC50 (EGFR L858R/C797S; [8]) [nM]	IC50 (EGFR wildtype (WT); [9]) [nM]
CC(O)CC#Cc1cnc(Nc2ccnc(-c3cnn(S(=O)(=O)C4CC4)c3)n2)cc1N1CCC(C)(CO)CC1 (centres unmarked) [Example 287, 5-(6-((2-(1-(Cyclopropylsulfonyl)-1H-pyrazol-4-yl)pyrimidin-4-yl)amino)-4-(4-(hydroxymethyl)-4-methylpiperidin-1-yl)pyridin-3-yl)pent-4-yn-2-ol]	0.1	0.3	1.6	8.9	3190					
CC1(CO)CCN(c2cc(Nc3ccnc(-c4cnn(S(=O)(=O)C5CC5)c4)n3)ncc2C#CCNC(=O)C(F)(F)F)CC1 [Example 288, N-(3-(6-((2-(1-(Cyclopropylsulfonyl)-1H-pyrazol-4-yl)pyrimidin-4-yl)amino)-4-(4-(hydroxymethyl)-4-methylpiperidin-1-yl)pyridin-3-yl)prop-2-yn-1-yl)-2,2,2-trifluoroacetamide]	0.2	0.2	3.6	21.6	7820					
CC1(CO)CCN(c2cc(Nc3ccnc(-c4cnn(S(=O)(=O)C5CC5)c4)n3)ncc2C#CCN2CCS(=O)(=O)CC2)CC1 [Example 289, 4-(3-(6-((2-(1-(Cyclopropylsulfonyl)-1H-pyrazol-4-yl)pyrimidin-4-yl)amino)-4-(4-(hydroxymethyl)-4-methylpiperidin-1-yl)pyridin-3-yl)prop-2-yn-1-yl)thiomorpholine 1,1-dioxide]	0.2	0.9	3	23.1	8440					
CC1(CO)CCN(c2cc(Nc3ccnc(-c4cnn(S(=O)(=O)C5CC5)c4)n3)ncc2C#Cc2cc(C(F)(F)F)n[nH]2)CC1 [Example 290, (1-(2-((2-(1-(Cyclopropylsulfonyl)-1H-pyrazol-4-yl)pyrimidin-4-yl)amino)-5-((3-(trifluoromethyl)-1H-pyrazol-5-yl)ethynyl)pyridin-4-yl)-4-methylpiperidin-4-yl)methanol]	5.7	8.6	26.2	> 10000	> 10000					
CC1(CO)CCN(c2cc(Nc3ccnc(-c4cnn(S(=O)(=O)C5CC5)c4)n3)ncc2C#Cc2nc(C(F)(F)F)cs2)CC1 [Example 291, (1-(2-((2-(1-(Cyclopropylsulfonyl)-1H-pyrazol-4-yl)pyrimidin-4-yl)amino)-5-((4-(trifluoromethyl)thiazol-2-yl)ethynyl)pyridin-4-yl)-4-methylpiperidin-4-yl)methanol]	7.4	14.9	22.5	383	> 10000	4.5	3.6	8.9	36.7	615
CC1(CO)CCN(c2cc(Nc3ccnc(-c4cnn(S(=O)(=O)C5CC5)c4)n3)ncc2C#Cc2cnc(C(F)(F)F)s2)CC1 [Example 292, (1-(2-((2-(1-(Cyclopropylsulfonyl)-1H-pyrazol-4-yl)pyrimidin-4-yl)amino)-5-((2-(trifluoromethyl)thiazol-5-yl)ethynyl)pyridin-4-yl)-4-methylpiperidin-4-yl)methanol]	2.2	4.2	10.4	146	> 10000	4.9	2.4	12.2	38.7	101
CN(C)CC1(F)CCN(c2cc(Nc3ccnc(-c4cnn(S(=O)(=O)C5CC5)c4)n3)ncc2C#Cc2cnn(C)c2)CC1 [Example 293, 2-(1-(Cyclopropylsulfonyl)-1H-pyrazol-4-yl)-N-(4-(4-((dimethylamino)methyl)-4-fluoropiperidin-1-yl)-5-((1-methyl-1H-pyrazol-4-yl)ethynyl)pyridin-2-yl)pyrimidin-4-amine formate]	0.4	1.3	6.5	34.1	> 10000	0.1	0.03	2.3	4.2	8.6
